Test results published in publication PMC9386018, “A lymphatic-absorbed multi-targeted kinase inhibitor for myelofibrosis therapy” (Nature Communications, 2022).
Where “and” joins values, the source holds several entries; their conditions need not be identical. Equal entries are not always repeated.

Columns and labels:
[1] = test system: MPL^W515L mouse model of myelofibrosis; test: MPL^W515L MF mouse model Study 2: spleen volume by MRI; assay type: in vivo; settings: for Spleen volume/body weight ratio: Study 2, individual animals, Supplementary Figure 11a
Procedure: Generation of the MPL^W515L mutant MF mouse model was similar to previously described methods. Briefly, female donor BALB/c mice were treated with 5-fluorouracil at 150 mg kg^−1 intraperitoneal for 5 d before harvesting bone marrow. Hematopoietic stem and progenitor cells were enriched with CD117 magnetic beads (Miltenyi Biotec), transduced with retrovirus containing MSCV-hMPL W515L-IRES-GFP, then 50,000 transduced HSPCs along with 300,000 total non-stem cells were injected intravenously into lethally irradiated female BALB/c recipients. Development of MF was evaluated by spleen volumes using MRI beginning ~14 d following bone marrow transplantation (BMT) as outlined below, continuing weekly until end of the study. Mice were separated into equal groups based on spleen size ~14–21 d post-BMT, then treated with vehicle (Maisine CC) or LP-182 at 400 mg kg^−1 daily by oral gavage for 14–28 d or until mice were euthanized using guidelines for end stage illness and humane endpoints. Untreated healthy control animals were used for experimental comparisons. Tissues were harvested and processed for flow cytometry (as described above), LCMS/MS, immuno-blotting, and histological analysis (as described in Supplementary Methods) at the defined study endpoint(s), approximately 1–2 h post-treatment with vehicle or LP-182. Briefly, blood samples were collected, transferred into K2-EDTA tubes (BD Microtainer), inverted gently to mix, then centrifuged at 2000 x g for 15 min. […] Dissection and bone marrow isolation from mouse femur and tibia was performed similar to previously described methods. Briefly, the hind limbs from mice were dissected, muscle and connective tissue removed, and bones were frozen at −80 °C. Femur and tibia were thawed separately, placed knee-end down in 18 gauge needle-pierced 0.5 mL microcentrifuge tubes nested inside 1.5 or 2 mL microcentrifuge tubes containing 1.4 mm ceramic beads (Fisher Scientific), then bone marrow was isolated by centrifugation at 10,000 x g for 1 min and processed for analysis by LCMS/MS (above; femur) or immuno-blotting (tibia). […] Soluble protein extracts were isolated by centrifugation at 15,000 x g for 15 min at 4 °C, quantified using Micro BCA protein assay (Thermo Scientific), then mixed with reducing 6X SDS-PAGE loading dye, heated for 8 min at 95 °C, and stored at −20 °C until immuno-blot analysis. Whole cell lysates were resolved by 10% SDS-PAGE, transferred to PVDF (Immobilon-P; MilliporeSigma), then membranes were blocked with 5% BSA (Equitech-Bio) in TBS containing 0.1% Tween-20 (TBST) for 1 h at room temperature with gentle orbital shaking. […]

[2] = test system: ERK1/2 and pERK1/2 (pT202/pY204) in bone marrow; test: MPL^W515L MF mouse model: ERK1/2 and pERK1/2 immunoblot of bone marrow; assay type: in vivo; settings: MPL^W515L mice, oral 400 mg kg^−1 daily, 28 d
Procedure: Generation of the MPL^W515L mutant MF mouse model was similar to previously described methods. Briefly, female donor BALB/c mice were treated with 5-fluorouracil at 150 mg kg^−1 intraperitoneal for 5 d before harvesting bone marrow. Hematopoietic stem and progenitor cells were enriched with CD117 magnetic beads (Miltenyi Biotec), transduced with retrovirus containing MSCV-hMPL W515L-IRES-GFP, then 50,000 transduced HSPCs along with 300,000 total non-stem cells were injected intravenously into lethally irradiated female BALB/c recipients. Development of MF was evaluated by spleen volumes using MRI beginning ~14 d following bone marrow transplantation (BMT) as outlined below, continuing weekly until end of the study. Mice were separated into equal groups based on spleen size ~14–21 d post-BMT, then treated with vehicle (Maisine CC) or LP-182 at 400 mg kg^−1 daily by oral gavage for 14–28 d or until mice were euthanized using guidelines for end stage illness and humane endpoints. Untreated healthy control animals were used for experimental comparisons. […] Soluble protein extracts were isolated by centrifugation at 15,000 x g for 15 min at 4 °C, quantified using Micro BCA protein assay (Thermo Scientific), then mixed with reducing 6X SDS-PAGE loading dye, heated for 8 min at 95 °C, and stored at −20 °C until immuno-blot analysis. […]

[3] = test system: phosphorylated ERK1/2 (pT202/pY204) in SET-2 cells; test: Phospho-flow cytometry of pERK1/2 in SET-2 cells; assay type: cell-based, human; settings: 5 μM, 16 h
Procedure: The human megakaryoblastic cell line, SET-2 (ATCC), was maintained in RPMI 1640 supplemented with 20% FBS and incubated for 16 h at 10^6 cells mL^−1 with LP-182 or vehicle (DMSO; dimethyl sulfoxide), then washed in ice-cold PBS, and collected for flow cytometry analysis. Single-cell suspensions of mouse spleen were prepared from MPL^W515L MF mice (below) in RPMI 1640 supplemented with 5% FCS. Red blood cells were lysed by ammonium chloride-mediated red cell lysis (RCL) buffer and passed through a nylon mesh, and then cells were counted. For intracellular phospho-protein staining, SET-2 or spleen cells were fixed and then permeabilized using BD Phospho-flow fixation buffer and Perm-Buffer III (BD biosciences) according to the manufacturer’s protocol. Intracellular phospho-protein staining was performed using fluorochrome-conjugated antibodies, pAKT (pS473)-Alexa Fluor 647 (MB89-61) or pERK1/2 (pT202/pY204)-Alexa Fluor 647 (20 A). All phospho-flow antibodies were purchased from BD Biosciences. […] Flow cytometry was performed on a FACS Fortessa (Becton, Dickinson and Co.) using FACSDiVa software, and data analyzed using FlowJo software (Tree Star). […]

SMILES: O=C(NOCCOCCOCCOCCC(=O)N1CCN(c2cnc3ccc(-c4cnc(Cl)c(NS(=O)(=O)c5ccc(F)cc5)c4)cc3n2)CC1)c1ccc(F)c(F)c1Nc1ccc(I)cc1F [LP-182, N-(2-(2-(2-(3-(4-(7-(6-chloro-5-((4-fluorophenyl)sulfonamido)pyridin-3-yl)quinoxalin-2-yl)piperazin-1-yl)-3-oxopropoxy)ethoxy)ethoxy)ethoxy)-3,4-difluoro-2-((2-fluoro-4-iodophenyl)amino)benzamide]
- attenuation of spleen volume increase compared to vehicle ([1]; Study 2, MPL^W515L mice, oral 400 mg kg^−1 daily, after 14 d): ~ 35%
- Spleen volume/body weight ratio ([1]; 15 Days Post-BMT): 9.2805 mm3/g and 6.788 mm3/g and 8.526 mm3/g and 6.999 mm3/g and 8.219 mm3/g and 8.1905 mm3/g and 7.226 mm3/g and 10.8805 mm3/g
- Spleen volume/body weight ratio ([1]; 22 Days Post-BMT): 22.8 mm3/g and 16.1111 mm3/g and 16.0806 mm3/g and 22.1506 mm3/g and 12.2778 mm3/g and 11.0626 mm3/g and 6.573 mm3/g and 8.03 mm3/g
- Spleen volume/body weight ratio ([1]; 29 Days Post-BMT): 30.4359 mm3/g and 16.7368 mm3/g and 15.8947 mm3/g and 27.7838 mm3/g and 8.806 mm3/g and 15.337 mm3/g and 5.115 mm3/g and 6.324 mm3/g
- levels and activation of ERK1/2 in bone marrow [2]: attenuate downstream MPL^W515L signal transduction
- decrease of downstream activation of ERK1/2 [3]: ~ 50%
